Source: ChEMBL document CHEMBL4665642, “Anticancer profile of newly synthesized BRAF inhibitors possess 5-(pyrimidin-4-yl)imidazo[2,1-b]thiazole scaffold” (Bioorg Med Chem, 2019)

Assays:
Type in all cases: functional
Conditions in all cases: read-out: Activity
Hs-578T = assay: Cytotoxicity against human HS-578T cells assessed as cell viability at 10 uM incubated for 48 hrs by sulforhodamine B assay relative to control
MDA-MB-231 = assay: Cytotoxicity against human MDA-MB-231 cells assessed as cell viability at 10 uM incubated for 48 hrs by sulforhodamine B assay relative to control
MCF7 = assay: Cytotoxicity against human MCF7 cells assessed as cell viability at 10 uM incubated for 48 hrs by sulforhodamine B assay relative to control
DU-145 = assay: Cytotoxicity against human DU-145 cells assessed as cell viability at 10 uM incubated for 48 hrs by sulforhodamine B assay relative to control
PC-3 = assay: Cytotoxicity against human PC-3 cells assessed as cell viability at 10 uM incubated for 48 hrs by sulforhodamine B assay relative to control
UO-31 = assay: Cytotoxicity against human UO-31 cells assessed as cell viability at 10 uM incubated for 48 hrs by sulforhodamine B assay relative to control
TK-10 = assay: Cytotoxicity against human TK-10 cells assessed as cell viability at 10 uM incubated for 48 hrs by sulforhodamine B assay relative to control
SN12C = assay: Cytotoxicity against human SN12C cells assessed as cell viability at 10 uM incubated for 48 hrs by sulforhodamine B assay relative to control
RXF 393 = assay: Cytotoxicity against human RXF 393 cells assessed as cell viability at 10 uM incubated for 48 hrs by sulforhodamine B assay relative to control
CAKI-1 = assay: Cytotoxicity against human CAKI-1 cells assessed as cell viability at 10 uM incubated for 48 hrs by sulforhodamine B assay relative to control
ACHN = assay: Cytotoxicity against human ACHN cells assessed as cell viability at 10 uM incubated for 48 hrs by sulforhodamine B assay relative to control
786-0 = assay: Cytotoxicity against human 786-0 cells assessed as cell viability at 10 uM incubated for 48 hrs by sulforhodamine B assay relative to control
OVCAR-8 = assay: Cytotoxicity against human OVCAR-8 cells assessed as cell viability at 10 uM incubated for 48 hrs by sulforhodamine B assay relative to control
OVCAR-5 = assay: Cytotoxicity against human OVCAR-5 cells assessed as cell viability at 10 uM incubated for 48 hrs by sulforhodamine B assay relative to control
OVCAR-3 = assay: Cytotoxicity against human OVCAR-3 cells assessed as cell viability at 10 uM incubated for 48 hrs by sulforhodamine B assay relative to control
IGROV-1 = assay: Cytotoxicity against human IGROV-1 cells assessed as cell viability at 10 uM incubated for 48 hrs by sulforhodamine B assay relative to control
UACC-257 = assay: Cytotoxicity against human UACC-257 cells assessed as cell viability at 10 uM incubated for 48 hrs by sulforhodamine B assay relative to control
SK-MEL-5 = assay: Cytotoxicity against human SK-MEL-5 cells assessed as cell viability at 10 uM incubated for 48 hrs by sulforhodamine B assay relative to control
SK-MEL-28 = assay: Cytotoxicity against human SK-MEL-28 cells assessed as cell viability at 10 uM incubated for 48 hrs by sulforhodamine B assay relative to control
SK-MEL-2 = assay: Cytotoxicity against human SK-MEL-2 cells assessed as cell viability at 10 uM incubated for 48 hrs by sulforhodamine B assay relative to control
M14 = assay: Cytotoxicity against human M14 cells assessed as cell viability at 10 uM incubated for 48 hrs by sulforhodamine B assay relative to control
MOLT-4 = assay: Cytotoxicity against human MOLT-4 cells assessed as cell viability at 10 uM incubated for 48 hrs by sulforhodamine B assay relative to control
RPMI-8226 = assay: Cytotoxicity against human RPMI-8226 cells assessed as cell viability at 10 uM incubated for 48 hrs by sulforhodamine B assay relative to control
SR = assay: Cytotoxicity against human SR cells assessed as cell viability at 10 uM incubated for 48 hrs by sulforhodamine B assay relative to control
A549 = assay: Cytotoxicity against human A549 cells assessed as cell viability at 10 uM incubated for 48 hrs by sulforhodamine B assay relative to control
HOP-62 = assay: Cytotoxicity against human HOP-62 cells assessed as cell viability at 10 uM incubated for 48 hrs by sulforhodamine B assay relative to control
HOP-92 = assay: Cytotoxicity against human HOP-92 cells assessed as cell viability at 10 uM incubated for 48 hrs by sulforhodamine B assay relative to control
NCI-H226 = assay: Cytotoxicity against human NCI-H226 cells assessed as cell viability at 10 uM incubated for 48 hrs by sulforhodamine B assay relative to control
NCI-H23 = assay: Cytotoxicity against human NCI-H23 cells assessed as cell viability at 10 uM incubated for 48 hrs by sulforhodamine B assay relative to control
NCI-H322M = assay: Cytotoxicity against human NCI-H322M cells assessed as cell viability at 10 uM incubated for 48 hrs by sulforhodamine B assay relative to control
COLO 205 = assay: Cytotoxicity against human COLO 205 cells assessed as cell viability at 10 uM incubated for 48 hrs by sulforhodamine B assay relative to control
HCC 2998 = assay: Cytotoxicity against human HCC 2998 cells assessed as cell viability at 10 uM incubated for 48 hrs by sulforhodamine B assay relative to control
HCT-116 = assay: Cytotoxicity against human HCT-116 cells assessed as cell viability at 10 uM incubated for 48 hrs by sulforhodamine B assay relative to control
HCT-15 = assay: Cytotoxicity against human HCT-15 cells assessed as cell viability at 10 uM incubated for 48 hrs by sulforhodamine B assay relative to control
HCT-29 = assay: Cytotoxicity against human […] cells assessed as cell viability at 10 uM incubated for 48 hrs by sulforhodamine B assay relative to control
SF-295 = assay: Cytotoxicity against human SF-295 cells assessed as cell viability at 10 uM incubated for 48 hrs by sulforhodamine B assay relative to control
SF-539 = assay: Cytotoxicity against human SF-539 cells assessed as cell viability at 10 uM incubated for 48 hrs by sulforhodamine B assay relative to control
SNB-19 = assay: Cytotoxicity against human SNB-19 cells assessed as cell viability at 10 uM incubated for 48 hrs by sulforhodamine B assay relative to control
SNB-75 = assay: Cytotoxicity against human SNB-75 cells assessed as cell viability at 10 uM incubated for 48 hrs by sulforhodamine B assay relative to control
U-251 = assay: Cytotoxicity against human U-251 cells assessed as cell viability at 10 uM incubated for 48 hrs by sulforhodamine B assay relative to control
LOX IMVI = assay: Cytotoxicity against human LOX IMVI cells assessed as cell viability at 10 uM incubated for 48 hrs by sulforhodamine B assay relative to control

Cc1ccc(S(=O)(=O)NCCCNc2nccc(-c3c(-c4cccc(F)c4)nc4sccn34)n2)cc1
viability at 10 µM (Hs-578T): 84.3%
viability at 10 µM (MDA-MB-231): 84.5%
viability at 10 µM (MCF7): 69.4%
viability at 10 µM (DU-145): 77%
viability at 10 µM (PC-3): 67.7%
viability at 10 µM (UO-31): 33.8%
viability at 10 µM (TK-10): 99.4%
viability at 10 µM (SN12C): 70.5%
viability at 10 µM (RXF 393): 80.3%
viability at 10 µM (CAKI-1): 46.9%
viability at 10 µM (ACHN): 65.5%
viability at 10 µM (786-0): 78.4%
viability at 10 µM (OVCAR-8): 60.3%
viability at 10 µM (OVCAR-5): 111%
viability at 10 µM (OVCAR-3): 89%
viability at 10 µM (IGROV-1): 37.8%
viability at 10 µM (UACC-257): 121%
viability at 10 µM (SK-MEL-5): 57.3%
viability at 10 µM (SK-MEL-28): 106%
viability at 10 µM (SK-MEL-2): 86.1%
viability at 10 µM (M14): 80.7%
viability at 10 µM (MOLT-4): 53.5%
viability at 10 µM (RPMI-8226): 68.2%
viability at 10 µM (SR): 102%
viability at 10 µM (A549): 73%
viability at 10 µM (HOP-62): 101%
viability at 10 µM (HOP-92): 112%
viability at 10 µM (NCI-H226): 53.7%
viability at 10 µM (NCI-H23): 96.2%
viability at 10 µM (NCI-H322M): 89.6%
viability at 10 µM (COLO 205): 55.5%
viability at 10 µM (HCC 2998): 98.2%
viability at 10 µM (HCT-116): 49.6%
viability at 10 µM (HCT-15): 47.1%
viability at 10 µM (HCT-29): 37.3%
viability at 10 µM (SF-295): 84.1%
viability at 10 µM (SF-539): 95.3%
viability at 10 µM (SNB-19): 92.2%
viability at 10 µM (SNB-75): 98.7%
viability at 10 µM (U-251): 82.2%
viability at 10 µM (LOX IMVI): 38%

O=S(=O)(NCCNc1nccc(-c2c(-c3cccc(F)c3)nc3sccn23)n1)c1ccc(C(F)(F)F)cc1
viability at 10 µM (Hs-578T): 82.6%
viability at 10 µM (MDA-MB-231): 92.8%
viability at 10 µM (MCF7): 59.3%
viability at 10 µM (DU-145): 89.2%
viability at 10 µM (PC-3): 57%
viability at 10 µM (UO-31): 51.7%
viability at 10 µM (TK-10): 98.2%
viability at 10 µM (SN12C): 89.7%
viability at 10 µM (RXF 393): 92.1%
viability at 10 µM (CAKI-1): 70.6%
viability at 10 µM (ACHN): 82.2%
viability at 10 µM (786-0): 82.1%
viability at 10 µM (OVCAR-8): 84.1%
viability at 10 µM (OVCAR-5): 122%
viability at 10 µM (OVCAR-3): 92.4%
viability at 10 µM (IGROV-1): 56.6%
viability at 10 µM (UACC-257): 109%
viability at 10 µM (SK-MEL-5): 84%
viability at 10 µM (SK-MEL-28): 114%
viability at 10 µM (SK-MEL-2): 98.8%
viability at 10 µM (M14): 91.4%
viability at 10 µM (MOLT-4): 57.5%
viability at 10 µM (RPMI-8226): 83.8%
viability at 10 µM (SR): 89.4%
viability at 10 µM (A549): 72.4%
viability at 10 µM (HOP-62): 102%
viability at 10 µM (HOP-92): 64%
viability at 10 µM (NCI-H226): 82.8%
viability at 10 µM (NCI-H23): 86.8%
viability at 10 µM (NCI-H322M): 96.5%
viability at 10 µM (COLO 205): 68.3%
viability at 10 µM (HCC 2998): 111%
viability at 10 µM (HCT-116): 67.8%
viability at 10 µM (HCT-15): 72.6%
viability at 10 µM (HCT-29): 62.8%
viability at 10 µM (SF-295): 107%
viability at 10 µM (SF-539): 103%
viability at 10 µM (SNB-19): 94.8%
viability at 10 µM (SNB-75): 85%
viability at 10 µM (U-251): 89.8%
viability at 10 µM (LOX IMVI): 88.9%

O=S(=O)(NCCCNc1nccc(-c2c(-c3cccc(F)c3)nc3sccn23)n1)c1ccc(C(F)(F)F)cc1
viability at 10 µM (Hs-578T): 83.5%
viability at 10 µM (MDA-MB-231): 96.5%
viability at 10 µM (MCF7): 82.1%
viability at 10 µM (DU-145): 94.7%
viability at 10 µM (PC-3): 67.8%
viability at 10 µM (UO-31): 57.9%
viability at 10 µM (TK-10): 107%
viability at 10 µM (SN12C): 89%
viability at 10 µM (RXF 393): 94.7%
viability at 10 µM (CAKI-1): 67.9%
viability at 10 µM (ACHN): 87.8%
viability at 10 µM (786-0): 80.1%
viability at 10 µM (OVCAR-8): 75.7%
viability at 10 µM (OVCAR-5): 129%
viability at 10 µM (OVCAR-3): 92.8%
viability at 10 µM (IGROV-1): 66.2%
viability at 10 µM (UACC-257): 110%
viability at 10 µM (SK-MEL-5): 91.1%
viability at 10 µM (SK-MEL-28): 116%
viability at 10 µM (SK-MEL-2): 89.9%
viability at 10 µM (M14): 92.4%
viability at 10 µM (MOLT-4): 62%
viability at 10 µM (RPMI-8226): 87.4%
viability at 10 µM (SR): 109%
viability at 10 µM (A549): 83.5%
viability at 10 µM (HOP-62): 104%
viability at 10 µM (HOP-92): 94.8%
viability at 10 µM (NCI-H226): 77.5%
viability at 10 µM (NCI-H23): 90%
viability at 10 µM (NCI-H322M): 104%
viability at 10 µM (COLO 205): 91%
viability at 10 µM (HCC 2998): 125%
viability at 10 µM (HCT-116): 86.2%
viability at 10 µM (HCT-15): 78.8%
viability at 10 µM (HCT-29): 80.1%
viability at 10 µM (SF-295): 104%
viability at 10 µM (SF-539): 110%
viability at 10 µM (SNB-19): 96.1%
viability at 10 µM (SNB-75): 86.4%
viability at 10 µM (U-251): 95.1%
viability at 10 µM (LOX IMVI): 86.7%
